Measurements taken from PubChem BioAssay AID248 (DTP/NCI, 2004).
Several values for one entry are separate records, joined by “and”; a condition that tells them apart may be missing. Equal values may be shown once. Toxic doses and inconclusive results are not listed. No stated cut-off is given here; in the data, active means T/C of 150% or more; inactive means T/C below 125%.

Test system: L1210 leukemia ip in BDF1 mice, survival T/C
Test: NCI In Vivo Anticancer Drug Screen. Data for tumor model L1210 Leukemia (intraperitoneal) in B6D2F1 (BDF1) mice
Details: endpoint: mean survival time, higher = longer survival
In short: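 Mice bearing the transplanted tumor received compound or vehicle. Survival of the treated group was divided by that of the vehicle-treated control group to give the ratio.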

[1] = dose: 50.0 mg/kg/injection, schedule: Q01DX001 (ip), vehicle: carboxymethylcellulose (CMC)
[2] = dose: 100.0 mg/kg/injection, schedule: Q01DX001 (ip), vehicle: carboxymethylcellulose (CMC)
[3] = dose: 200.0 mg/kg/injection, schedule: Q01DX001 (ip), vehicle: carboxymethylcellulose (CMC)
[4] = dose: 100.0 mg/kg/injection, schedule: Q01DX001 (ip), vehicle: other
[5] = dose: 200.0 mg/kg/injection, schedule: Q01DX001 (ip), vehicle: other
[6] = dose: 100.0 mg/kg/injection, schedule: Q01DX009 (ip), vehicle: Klucel (hydroxypropylcellulose) (HPC)
[7] = dose: 100.0 mg/kg/injection, schedule: Q04DX002 (ip), vehicle: saline with Tween-80
[8] = dose: 200.0 mg/kg/injection, schedule: Q04DX002 (ip), vehicle: saline with Tween-80
[9] = dose: 400.0 mg/kg/injection, schedule: Q04DX002 (ip), vehicle: saline with Tween-80
[10] = dose: 100.0 mg/kg/injection, schedule: Q04DX003 (ip), vehicle: saline with Tween-80
[11] = dose: 200.0 mg/kg/injection, schedule: Q04DX003 (ip), vehicle: saline with Tween-80
[12] = dose: 400.0 mg/kg/injection, schedule: Q04DX003 (ip), vehicle: saline with Tween-80

Measured: T/C

CCCN(C(=O)CCl)c1ccccc1
inactive: dose: 12.5 mg/kg/injection, schedule: Q04DX002 (ip), vehicle: Klucel (hydroxypropylcellulose) (HPC) 122 % of control | dose: 25.0 mg/kg/injection, schedule: Q04DX002 (ip), vehicle: Klucel (hydroxypropylcellulose) (HPC) 94 % of control | dose: 50.0 mg/kg/injection, schedule: Q04DX002 (ip), vehicle: Klucel (hydroxypropylcellulose) (HPC) 105 % of control

CC1C(C)N1P(I)(c1ccccc1)(c1ccccc1)c1ccccc1 (centres undefined)
inactive: dose: 2.5 mg/kg/injection, schedule: Q01DX001 (ip), vehicle: carboxymethylcellulose (CMC) 115 % of control

CC(C)=NOC(CC(=O)O)C(=O)O (centres undefined)
inactive: dose: 100.0 mg/kg/injection, schedule: Q04DX002 (ip), vehicle: saline 96 % of control | dose: 200.0 mg/kg/injection, schedule: Q04DX002 (ip), vehicle: saline 96 % of control | dose: 400.0 mg/kg/injection, schedule: Q04DX002 (ip), vehicle: saline 96 % of control

C/C=C(C)/C=N/Nc1nnc(N/N=C/C(C)=C/C)c2ccccc12
inactive: [1] 95 % of control | [2] 95 % of control | [3] 103 % of control

NC(=S)N/N=C/c1nccn1Cc1ccccc1
inactive: dose: 100.0 mg/kg/injection, schedule: Q01DX001 (ip), vehicle: Klucel (hydroxypropylcellulose) (HPC) 104 % of control | [4] 101 % of control | dose: 200.0 mg/kg/injection, schedule: Q01DX001 (ip), vehicle: Klucel (hydroxypropylcellulose) (HPC) 101 % of control | [5] 96 % of control | dose: 400.0 mg/kg/injection, schedule: Q01DX001 (ip), vehicle: Klucel (hydroxypropylcellulose) (HPC) 104 % of control

CSc1nc(N)c(N=Nc2ccc(S(=O)(=O)Nc3nccs3)cc2)c(=O)[nH]1
inactive: [2] 92 % of control | [3] 92 % of control | dose: 400.0 mg/kg/injection, schedule: Q01DX001 (ip), vehicle: carboxymethylcellulose (CMC) 92 % of control

C/C(C(=O)O)=C(/Cl)c1c(C)cc(C)c(Br)c1C
inactive: dose: 100.0 mg/kg/injection, schedule: Q01DX001 (ip), vehicle: gum acacia 89 % of control | dose: 100.0 mg/kg/injection, schedule: Q01DX009 (ip), vehicle: gum acacia 108 % of control | dose: 200.0 mg/kg/injection, schedule: Q01DX001 (ip), vehicle: gum acacia 93 % of control | dose: 200.0 mg/kg/injection, schedule: Q01DX009 (ip), vehicle: gum acacia 105 % of control | dose: 400.0 mg/kg/injection, schedule: Q01DX001 (ip), vehicle: gum acacia 91 % of control

CCN(CC)CCOC(=O)C1CC1(c1ccccc1)c1ccccc1 (centres undefined)
inactive: dose: 25.0 mg/kg/injection, schedule: Q01DX009 (ip), vehicle: Klucel (hydroxypropylcellulose) (HPC) 98 % of control | dose: 50.0 mg/kg/injection, schedule: Q01DX009 (ip), vehicle: Klucel (hydroxypropylcellulose) (HPC) 87 % of control | [6] 95 % of control and 98 % of control

O=[N+]([O-])c1ccc(S(=O)(=O)F)c(Cl)c1
inactive: dose: 100.0 mg/kg/injection, schedule: Q01DX001 (ip), vehicle: saline 98 % of control | dose: 200.0 mg/kg/injection, schedule: Q01DX001 (ip), vehicle: saline 90 % of control | dose: 400.0 mg/kg/injection, schedule: Q01DX001 (ip), vehicle: saline 96 % of control

COc1ccc(OC)c(NC(=O)Nc2ccc(C(=O)O)c(O)c2)c1
inactive: [6] 91 % of control | dose: 200.0 mg/kg/injection, schedule: Q01DX009 (ip), vehicle: Klucel (hydroxypropylcellulose) (HPC) 103 % of control | dose: 400.0 mg/kg/injection, schedule: Q01DX009 (ip), vehicle: Klucel (hydroxypropylcellulose) (HPC) 97 % of control

CC1Cc2c(Cl)cc(C(=O)NC(Cc3ccccc3)C(=O)O)c(O)c2C(=O)O1 (centres undefined)
inactive: dose: 0.12 mg/kg/injection, schedule: Q01DX009 (ip), vehicle: saline with Tween-80 95 % of control | dose: 0.25 mg/kg/injection, schedule: Q01DX009 (ip), vehicle: saline with Tween-80 93 % of control | dose: 0.5 mg/kg/injection, schedule: Q01DX009 (ip), vehicle: saline with Tween-80 96 % of control | dose: 1.0 mg/kg/injection, schedule: Q01DX009 (ip), vehicle: saline with Tween-80 96 % of control | [1] 100 % of control | [2] 107 % of control

NNP(=O)(N1CCCCC1)N1CCCCC1
inactive: [7] 90 % of control | [8] 97 % of control

CN=C(N)c1ccc(N=C(N)c2ccc(Cl)c(C(N)=Nc3ccc(C(N)=NC)cc3)c2)cc1
inactive: dose: 10.0 mg/kg/injection, schedule: Q01DX Z (ip), vehicle: water 96 % of control | dose: 20.0 mg/kg/injection, schedule: Q01DX Z (ip), vehicle: water 113 % of control

COC(=O)C(CCl)NC(=O)c1ccccc1 (centres undefined)
inactive: dose: 50.0 mg/kg/injection, schedule: Q01DX009 (ip), vehicle: saline 105 % of control | dose: 100.0 mg/kg/injection, schedule: Q01DX009 (ip), vehicle: saline 90 % of control | dose: 100.0 mg/kg/injection, schedule: Q04DX003 (ip), vehicle: Klucel (hydroxypropylcellulose) (HPC) 102 % of control | dose: 200.0 mg/kg/injection, schedule: Q01DX009 (ip), vehicle: saline 95 % of control | dose: 200.0 mg/kg/injection, schedule: Q04DX003 (ip), vehicle: Klucel (hydroxypropylcellulose) (HPC) 96 % of control

COC1CCC(/C(C#N)=C/C2CCC3OCOC3C2)CC1 (centres undefined)
inactive: [7] 101 % of control | [8] 90 % of control | [9] 94 % of control

CC1(C)CC(=O)NN1C(=O)c1ccccc1
inactive: [10] 108 % of control | [11] 103 % of control | [12] 102 % of control

CCCC(C)c1ccc(C(C)=O)cc1 (centres undefined)
inactive: dose: 25.6 mg/kg/injection, schedule: Q04DX002 (ip), vehicle: saline with Tween-80 100 % of control | dose: 64.0 mg/kg/injection, schedule: Q04DX002 (ip), vehicle: saline with Tween-80 92 % of control | dose: 100.0 mg/kg/injection, schedule: Q01DX009 (ip), vehicle: saline with Tween-80 89 % of control | [10] 91 % of control | dose: 160.0 mg/kg/injection, schedule: Q04DX002 (ip), vehicle: saline with Tween-80 88 % of control | dose: 200.0 mg/kg/injection, schedule: Q01DX009 (ip), vehicle: saline with Tween-80 89 % of control | [11] 96 % of control | dose: 400.0 mg/kg/injection, schedule: Q01DX009 (ip), vehicle: saline with Tween-80 90 % of control | [9] 92 % of control | [12] 88 % of control

COC(=O)c1ccccc1-c1ccccc1C(=O)O
inactive: dose: 44.0 mg/kg/injection, schedule: Q01DX001 (ip), vehicle: other 101 % of control | dose: 66.0 mg/kg/injection, schedule: Q01DX001 (ip), vehicle: other 106 % of control | [4] 93 % of control | dose: 150.0 mg/kg/injection, schedule: Q01DX001 (ip), vehicle: other 95 % of control | [5] 98 % of control | dose: 400.0 mg/kg/injection, schedule: Q01DX001 (ip), vehicle: other 98 % of control

CCCCCCCCCCCCCCCCn1cnc2c(=S)nc[nH]c21
inactive: dose: 12.5 mg/kg/injection, schedule: Q01DX005 (ip), vehicle: other 102 % of control | dose: 25.0 mg/kg/injection, schedule: Q01DX005 (ip), vehicle: other 96 % of control | dose: 50.0 mg/kg/injection, schedule: Q01DX005 (ip), vehicle: other 104 % of control | dose: 100.0 mg/kg/injection, schedule: Q01DX005 (ip), vehicle: other 104 % of control | dose: 200.0 mg/kg/injection, schedule: Q01DX005 (ip), vehicle: other 96 % of control
